EC50, Emax and Ki data for 48 compounds are collected here from patent US20070213394A1 (priority 2004, published 2007).

Where two headings read alike, the source gives them in different places. Bounds are passed on as bounds.

One may read the EC50 as the concentration that produces a half-maximal response. High values mean a need for much substance, low ones an effect from little substance. A word on the Ki: it is the equilibrium dissociation constant of an inhibitor or competing ligand from its target.

The target of experiment [1] is T1, human kappa opioid receptor (Homo sapiens, UniProt P41145).
T1 construct: expressed in transfected cells; host or cells: Chinese hamster ovary cells (CHO-hKOR), membranes
T1 sequence (P41145 whole entry): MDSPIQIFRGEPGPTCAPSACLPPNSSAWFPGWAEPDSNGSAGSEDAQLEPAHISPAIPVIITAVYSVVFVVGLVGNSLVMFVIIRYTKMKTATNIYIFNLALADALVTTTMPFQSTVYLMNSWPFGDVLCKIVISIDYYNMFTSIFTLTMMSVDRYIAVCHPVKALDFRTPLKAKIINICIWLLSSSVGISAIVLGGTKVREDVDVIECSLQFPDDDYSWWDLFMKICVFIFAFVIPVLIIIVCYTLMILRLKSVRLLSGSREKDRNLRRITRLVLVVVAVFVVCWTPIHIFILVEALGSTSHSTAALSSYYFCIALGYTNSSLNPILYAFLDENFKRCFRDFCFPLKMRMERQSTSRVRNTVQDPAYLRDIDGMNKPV
The experiment in a line: biochemical. To be noted: for Emax: 1 h, read-out: Efficacy.

Experiment [2] has as its target T1, human kappa opioid receptor. The experiment in a line: biochemical. It counts as binding.

In the case of `CCOC(=O)C1CC(OC(C)=O)C(=O)C2C1(C)CCC1C(=O)OC(c3ccoc3)CC12C` (stereo not drawn) [Compound 34], in experiment [1], the response was half-maximal at 94.4 ± 4.1 nM (EC50) and the Emax stood at 110 ± 6.4%. In experiment [2], this compound gave a Ki of 365 ± 26 nM.

In the case of `COC(=O)C1CC(NC(C)=O)C(=O)C2C1(C)CCC1C(=O)OC(c3ccoc3)CC12C` (stereo not drawn) [Compound 212a, 2-(acetamide)-salvinorin], the midpoint of the response in experiment [1], the EC50, lay at 188 ± 2 nM. In addition, affinity in experiment [2] was put at a Ki of 149 ± 1 nM.

As to `CC(=O)OC1CC(C(=O)NC(C)C(=O)OCc2ccccc2)C2(C)CCC3C(=O)OC(c4ccoc4)CC3(C)C2C1=O` (stereo not drawn) [Compound 98], in experiment [1], it took 46.7 ± 7.3 nM to reach a half-maximal effect (EC50) and the Emax was determined as 95%. Further, the inhibition constant Ki in experiment [2] was determined as 14.2 ± 0.8 nM.

With `CCO[C@H]1C[C@@H](C(=O)OC)[C@]2(C)CC[C@H]3C(=O)O[C@H](c4ccoc4)C[C@]3(C)C2C1=O` (stereo partly drawn) [Compound 15, 2-ethoxy-salvinorin B], the Emax in experiment [1] was found to be 103%.

In the case of `CC(=O)OC1CC(C(=O)NC(C)C(=O)OCc2ccccc2)C2(C)CCC3C(=O)OC(c4ccoc4)CC3(C)C2C1=O` (stereo not drawn) [Compound 99], the Ki in experiment [2] was over 10000 nM.

`CC(=O)OC1CC(C(=O)N(C)C)C2(C)CCC3C(=O)OC(c4ccoc4)CC3(C)C2C1=O` (stereo not drawn) [Compound 221, C(4)-N,N-dimethylamide salvinorin A] displayed a Ki in experiment [2] of over 10000 nM.

In experiment [2], `COC(=O)[C@@H]1C[C@H](OC(=O)[C@H](C)N)C(=O)C2[C@@]1(C)CC[C@H]1C(=O)O[C@H](c3ccoc3)C[C@]21C` (stereo partly drawn) [Compound 25] showed a Ki of over 10000 nM.

Consider `CCCCCCCCOC(=O)C1CC(OC(C)=O)C(=O)C2C1(C)CCC1C(=O)OC(c3ccoc3)CC12C` (stereo not drawn) [Compound 42], for which the Ki in experiment [2] is over 10000 nM.

The compound `CCNC1CC(C(=O)OC)C2(C)CCC3C(=O)OC(c4ccoc4)CC3(C)C2C1=O` (stereo not drawn) [Compound 209a, 2-(N-ethyl)-salvinorin] came in with an EC50 in experiment [1] of 72.8 ± 4 nM. In addition, in experiment [2], the affinity corresponds to a Ki of 65 ± 24 nM.

In the case of `CC(=O)O[C@H]1C[C@@H](C(=O)O)[C@]2(C)CC[C@H]3C(=O)O[C@H](c4ccoc4)C[C@]3(C)C2C1=O` (stereo partly drawn) [Compound 32, demethyl Salvinorin], in experiment [1], the EC50 is over 1230 nM. The Ki in experiment [2] was over 115 nM.

Take `COC(=O)C1CC(OC)C(=O)C2C1(C)CCC1C(=O)OC(c3ccoc3)CC12C` (stereo not drawn) [Compound 205b, 2-epi-(O-methyl)-salvinorin B]: the Ki in experiment [2] was over 10000 nM.

Regarding `CCC(=O)N(CC)[C@@H]1C[C@@H](C(=O)OC)[C@]2(C)CC[C@H]3C(=O)O[C@H](c4ccoc4)C[C@]3(C)[C@H]2C1=O` [Compound 217b, 2-epi-(N-ethylpropionamide)-salvinorin], the Emax in experiment [1] was 96%.

Turning to `COC(=O)[C@@H]1C[C@H](OC(=O)CNC(=O)OCC2c3ccccc3-c3ccccc32)C(=O)C2[C@@]1(C)CC[C@H]1C(=O)O[C@H](c3ccoc3)C[C@]21C` (stereo partly drawn) [Compound 21], the EC50 in experiment [1] is over 4120 nM. This compound returned a Ki in experiment [2] of over 277 nM.

The compound `CCCCO[C@H]1C[C@@H](C(=O)OC)[C@]2(C)CC[C@H]3C(=O)O[C@H](c4ccoc4)C[C@]3(C)C2C1=O` (stereo partly drawn) [Compound 13, 2-n-butoxy-salvinorin B] returned an EC50 in experiment [1] of 104 ± 17 nM. In experiment [2], the Ki turned out to be 35.8 ± 5.1 nM.

On to `COC(=O)[C@@H]1C[C@H](OC(=O)CNC(C)=O)C(=O)C2[C@@]1(C)CC[C@H]1C(=O)O[C@H](c3ccoc3)C[C@]21C` (stereo partly drawn) [Compound 26], for which the Ki in experiment [2] is over 10000 nM.

In experiment [1], `COC(=O)[C@@H]1C[C@@H](NC(C)C)C(=O)C2[C@@]1(C)CC[C@H]1C(=O)O[C@H](c3ccoc3)C[C@]21C` (stereo partly drawn) [Compound 75, 2-epi-(N-isopropyl)-salvinorin] returned an EC50 of 7.2 ± 0.3 nM. Also, the Ki in experiment [2] stood at 2.3 ± 0.6 nM.

In the case of `CCC(=O)OC1CC(C(=O)OC)C2(C)CCC3C(=O)OC(c4ccoc4)CC3(C)C2C1=O` (stereo not drawn) [Compound 203b, 2-epi-salvinorin B propionate], the Ki in experiment [2] worked out at 641 ± 122 nM.

In the case of `COC(=O)[C@@H]1C[C@@H](N(C)C(C)=O)C(=O)C2[C@@]1(C)CC[C@H]1C(=O)O[C@H](c3ccoc3)C[C@]21C` (stereo partly drawn) [Compound 80, 2-epi-(N-methylacetamide)-salvinorin], in experiment [1], the Emax turned out to be 106%.

For the compound `COC(=O)[C@@H]1C[C@H](O)C(=O)C2[C@@]1(C)CC[C@H]1C(=O)O[C@H](c3ccoc3)C[C@]21C` (stereo partly drawn) [Compound 1, salvinorin B], in experiment [1], the Emax amounted to 98%.

For `COC(=O)C1CC(N(C)C)C(=O)C2C1(C)CCC1C(=O)OC(c3ccoc3)CC12C` (stereo not drawn) [Compound 211a, 2-(N,N-dimethyl)-salvinorin], in experiment [1], the EC50 came out at 240 ± 23 nM and the Emax turned out to be 110%. Also, the Ki in experiment [2] was determined as 168 ± 10 nM.

Take `CC(=O)OC1CC(C(=O)NC(Cc2cnc[nH]2)C(=O)OCc2ccccc2)C2(C)CCC3C(=O)OC(c4ccoc4)CC3(C)C2C1=O` (stereo not drawn) [Compound 105]: the inhibition constant Ki in experiment [2] is over 10000 nM.

In the case of `CC(=O)OC1CC(CN(C)C)C2(C)CCC3C(=O)OC(c4ccoc4)CC3(C)C2C1=O` (stereo not drawn) [C8-epi-compound 226, 8-epi-4-(N,N-dimethylamino)methyl salvinorin A], the Ki in experiment [2] (read-out: Ki) is over 10000 nM.

In the case of `CNC(=O)C1CC(OC(C)=O)C(=O)C2C1(C)CCC1C(=O)OC(c3ccoc3)CC12C` (stereo not drawn) [C8-epi-compound 219, 8-epi-C(4)-N-methylamide salvinorin A], in experiment [2] (read-out: Ki), the Ki was 1390 ± 218 nM.

For the compound `CNC(=O)[C@@H]1C[C@H](OC(C)=O)C(=O)[C@H]2[C@@]1(C)CC[C@H]1C(=O)O[C@H](c3ccoc3)C[C@]21C` [Compound 219, C(4)-N-methylamide salvinorin A], the Ki in experiment [2] (read-out: Ki) was over 1000 nM.

`CN[C@@H]1C[C@@H](C(=O)OC)[C@]2(C)CC[C@H]3C(=O)O[C@H](c4ccoc4)C[C@]3(C)C2C1=O` (stereo partly drawn) [Compound 11, 2-(N-methylamino)-salvinorin] displayed a Ki in experiment [2] of over 10000 nM.

Consider `CCCCCOC(=O)C1CC(OC(C)=O)C(=O)C2C1(C)CCC1C(=O)OC(c3ccoc3)CC12C` (stereo not drawn) [Compound 40], for which, in experiment [2], the Ki is over 10000 nM.

Consider “8-epi-O-demethyl-18-deoxysalvinorin A [C8-epi-compound 222]”, for which the Ki in experiment [2] (read-out: Ki) was determined as 1000 ± 269 nM.

Consider `CCCOC(=O)C1CC(OC(C)=O)C(=O)C2C1(C)CCC1C(=O)OC(c3ccoc3)CC12C` (stereo not drawn) [Compound 54], for which the Ki in experiment [2] was over 10000 nM.

Take `CCC(=O)N(C)C1CC(C(=O)OC)C2(C)CCC3C(=O)OC(c4ccoc4)CC3(C)C2C1=O` (stereo not drawn) [Compound 215a, 2-(N-methylpropionamide)-salvinorin]: the affinity in experiment [2] corresponds to a Ki of 1.6 ± 0.1 nM.

Regarding `CCOC1CC(C(=O)OC)C2(C)CCC3C(=O)OC(c4ccoc4)CC3(C)C2C1=O` (stereo not drawn) [Compound 206b, 2-epi-(O-ethyl)-salvinorin B], the Ki in experiment [2] was over 10000 nM.

`CCCC(=O)OC1CC(C(=O)OC)C2(C)CCC3C(=O)OC(c4ccoc4)CC3(C)C2C1=O` (stereo not drawn) [Compound 204b, 2-epi-salvinorin B butyrate] showed a Ki in experiment [2] of 665 ± 100 nM.

Regarding `COC(=O)[C@@H]1C[C@H](O)C(=O)C2[C@@]3(C)C[C@@H](c4ccoc4)OC(=O)[C@H]3CC[C@]21C` (stereo partly drawn) [Compound 5, Episalvinorin B], the Emax in experiment [1] was 102%.

In the case of `CCN(C(C)=O)[C@H]1C[C@@H](C(=O)OC)[C@]2(C)CC[C@H]3C(=O)O[C@H](c4ccoc4)C[C@]3(C)[C@H]2C1=O` [Compound 216a, 2-(N-ethylacetamide)-salvinorin], the Emax in experiment [1] is 104%.

With `CNCC1CC(OC(C)=O)C(=O)C2C1(C)CCC1C(=O)OC(c3ccoc3)CC12C` (stereo not drawn) [C8-epi-compound 224, 8-epi-4-(N-methylamino)methyl salvinorin A], the Ki in experiment [2] (read-out: Ki) was over 10000 nM.

As for `CC(=O)OC1CC(C(=O)N2CCCC2C(=O)OCc2ccccc2)C2(C)CCC3C(=O)OC(c4ccoc4)CC3(C)C2C1=O` (stereo not drawn) [Compound 104], in experiment [2], the Ki was over 10000 nM.

In turn, `C#CCCOC(=O)C1CC(OC(C)=O)C(=O)C2C1(C)CCC1C(=O)OC(c3ccoc3)CC12C` (stereo not drawn) [Compound 53] came in with a Ki in experiment [2] of over 10000 nM.

For `COC(=O)[C@@H]1C[C@H](OC(=O)CN(C)C)C(=O)C2[C@@]1(C)CC[C@H]1C(=O)O[C@H](c3ccoc3)C[C@]21C` (stereo partly drawn) [Compound 12, 2-(2′-(N,N-dimethylamino)acetate) salvinorin B], the Ki in experiment [2] was over 10000 nM.

The compound `CCOC(=O)C1CC(OC(C)=O)C(=O)C2C1(C)CCC1C(=O)OC(c3ccoc3)CC12C` (stereo not drawn) [Compound 33] displayed a Ki in experiment [2] of over 10000 nM.

For the compound `CC(=O)O[C@H]1C[C@@H](CO)[C@]2(C)CCC3C(=O)O[C@H](c4ccoc4)C[C@]3(C)[C@H]2C1=O` (stereo partly drawn) [Compound 222, O-demethyl-18-deoxysalvinorin A], the Ki in experiment [2] was over 10000 nM.

In turn, `CC(=O)OC1CC(C(=O)OCc2ccccc2)C2(C)CCC3C(=O)OC(c4ccoc4)CC3(C)C2C1=O` (stereo not drawn) [Compound 37] showed a Ki in experiment [2] of over 10000 nM.

As for `CCC(=O)N[C@H]1C[C@@H](C(=O)OC)[C@]2(C)CC[C@H]3C(=O)O[C@H](c4ccoc4)C[C@]3(C)[C@H]2C1=O` [Compound 213a, 2-(propionamide)-salvinorin], the Emax in experiment [1] was determined as 109%.

On to `CCN(C(C)=O)[C@@H]1C[C@@H](C(=O)OC)[C@]2(C)CC[C@H]3C(=O)O[C@H](c4ccoc4)C[C@]3(C)[C@H]2C1=O` [Compound 216b, 2-epi-(N-ethylacetamide)-salvinorin], for which the Emax in experiment [1] is 95%.

`COC(=O)[C@@H]1C[C@H](OC(=O)CN(C)C)C(=O)C2[C@@]1(C)CC[C@H]1C(=O)O[C@H](c3ccoc3)C[C@]21C` (stereo partly drawn) [Compound 27]: in experiment [2], the Ki was over 10000 nM.

Turning to `CCC(=O)N(CC)[C@H]1C[C@@H](C(=O)OC)[C@]2(C)CC[C@H]3C(=O)O[C@H](c4ccoc4)C[C@]3(C)[C@H]2C1=O` [Compound 217a, 2-(N-ethylpropionamide)-salvinorin], the Emax in experiment [1] was determined as 100%.

In the case of `CCC(=O)N[C@@H]1C[C@@H](C(=O)OC)[C@]2(C)CC[C@H]3C(=O)O[C@H](c4ccoc4)C[C@]3(C)[C@H]2C1=O` [Compound 213b, 2-epi-(propionamide)-salvinorin], the Emax in experiment [1] amounted to 102%.

On to `CCCCOC(=O)C1CC(OC(C)=O)C(=O)C2C1(C)CCC1C(=O)OC(c3ccoc3)CC12C` (stereo not drawn) [Compound 35], for which the Ki in experiment [2] is over 10000 nM.

Regarding `CCNCC1CC(OC(C)=O)C(=O)C2C1(C)CCC1C(=O)OC(c3ccoc3)CC12C` (stereo not drawn) [C8-epi-compound 225, 8-epi-4-(N-ethylamino)methyl salvinorin A], the Ki in experiment [2] (read-out: Ki) is over 10000 nM.

On to `C=CCOC(=O)C1CC(OC(C)=O)C(=O)C2C1(C)CCC1C(=O)OC(c3ccoc3)CC12C` (stereo not drawn) [Compound 56], for which, in experiment [2], the Ki is over 10000 nM.
